Data reported in patent US7452865B2, “Antagonistic analogs of GH RH (2003)” (The Administrare's of the Tulane Educational Fund, priority 2004, dated 2008).
Square brackets hold non-standard residues; d marks the D form. Peptide text beside a SMILES is read from it. * marks the point of attachment. Phe(4-Cl) = N[C@@H](Cc1ccc(Cl)cc1)C(=O)O; C14 diacid = O=C(O)CCCCCCCCCCCCC(=O)*; HOOC(CH2)8CO = O=C(O)CCCCCCCCC(=O)*; HOOC(CH2)6CO = O=C(O)CCCCCCC(=O)*; hArg = N=C(N)NCCCC[C@H](N)C(=O)O; Cit = NC(=O)NCCC[C@H](N)C(=O)O; Decanoyl = CCCCCCCCCC(=O)*; Nle = CCCC[C@H](N)C(=O)O; Abu = CC[C@H](N)C(=O)O; PhAc = O=C(Cc1ccccc1)*

How the values were obtained:
[1] = tested on: hGH-RH(1-29)NH2 induced GH release; assay: Inhibition of GH release in superfused rat pituitary system; assay type: cell-based; conditions: for GH response (% of control) 0 min / GH response (% of control) 30 min / GH response (% of control) 60 min / GH response (% of control) 90 min / GH response (% of control) 120 min: antagonist 30 nM; for GH response (% of control) 0 min: 1 nM hGH-RH(1-29)NH2 at 0 min; for GH response (% of control) 30 min: 1 nM hGH-RH(1-29)NH2 at 30 min; for GH response (% of control) 60 min: 1 nM hGH-RH(1-29)NH2 at 60 min; for GH response (% of control) 90 min: 1 nM hGH-RH(1-29)NH2 at 90 min; for GH response (% of control) 120 min: 1 nM hGH-RH(1-29)NH2 at 120 min
Outline: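 Dispersed rat pituitary cells in superfusion were preincubated 9 min with analog at various concentrations, then stimulated with 1 nM hGH-RH(1-29)NH2 for 3 min, repeated at 30, 60, 90, 120 min to gauge duration. GH measured by double-antibody RIA; net integrated responses expressed as percent of the initial 1 nM GH-RH response.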

[2] = tested on: GH-RH receptor isoforms on membrane fractions of human PC-3 prostate tumors; assay type: binding; conditions: for binding affinities to the tumoral receptors for GH-RH (in words): general statement
Excerpt: Ligand competition assays with ^125I-labeled GH-RH antagonist JV-1-42 were used to determine the binding affinities of GH-RH analogs to the GH-RH receptor isoforms on membrane fractions of human PC-3 prostate tumors. The methods used have been described in detail (Halmos G, Schally A V, Varga J L, Plonowski A, Rekasi Z, Czompoly T, Proc Natl Acad Sci USA 97: 10555-10560, 2000; Halmos G, Schally A V, Czompoly T, Krupa M, Varga J L, Rekasi Z, J Clin Endocrinol Metab 87: 4707-4714, 2002), hereby incorporated by reference. Briefly, radioiodinated derivatives of JV-142 are prepared by the chloramine-T method. PC-3 tumors, grown as xenografts in nude mice, are used to prepare crude membranes. PC-3 membrane homogenates are incubated with [^125I]JV-142 and increasing concentrations (10^−12 to 10^−6 M) of nonradioactive antagonist peptides as competitors. The pellet is separated by centrifugation and counted for radioactivity in a gamma-counter. The final binding affinities are estimated by K1 (dissociation constant of the inhibitor-receptor complex) and are determined by the Ligand PC and McPherson computer programs of Munson and Rodbard (P. J. Munson and D. Rodbard, Anal. Biochem. […]: 220-239, 1980). Relative affinities (R.A.) compared to reference peptides such as JV-1-36 or JV-1-38, are calculated as the ratio of K1 of the reference peptide to the K, of the tested GH-RH antagonist.

Row | SMILES | GH response (% of control) 0 min [1] | GH response (% of control) 30 min [1] | GH response (% of control) 60 min [1] | GH response (% of control) 90 min [1] | binding affinities to the tumoral receptors for GH-RH (in words) [2] | GH response (% of control) 120 min [1] | Relative Affinities (R.A.) to membrane receptors on PC-3 human prostate cancers [2] | endocrine antagonistic potency: inhibition of the GH release stimulated by hGH-RH(1-29)NH2 (in words) ([1]; general statement, in vitro and in vivo)
1 | CCCC[C@H](NC(=O)[C@@H](NC(=O)[C@H](CC(=O)O)NC(=O)[C@H](CCC(N)=O)NC(=O)[C@H](CC(C)C)NC(=O)[C@H](CC(C)C)NC(=O)[C@H](CCCCN)NC(=O)[C@H](CCCNC(=N)N)NC(=O)[C@H](C)NC(=O)[C@H](CO)NC(=O)[C@H](CC(C)C)NC(=O)[C@H](CCC(N)=O)NC(=O)[C@H](CC)NC(=O)[C@H](CC(C)C)NC(=O)[C@@H](NC(=O)[C@H](CCCCN)NC(=O)[C@H](CCCNC(=N)N)NC(=O)[C@H](Cc1ccc(O)cc1)NC(=O)[C@H](CCCNC(N)=O)NC(=O)[C@H](CCCNC(N)=O)NC(=O)[C@@H](NC(=O)[C@H](Cc1ccc(Cl)cc1)NC(=O)[C@@H](NC(=O)[C@H](C)NC(=O)[C@H](CC(=O)O)NC(=O)[C@@H](CCCNC(=N)N)NC(=O)[C@H](Cc1ccc(O)cc1)NC(=O)Cc1ccccc1)[C@@H](C)CC)[C@@H](C)O)C(C)C)[C@@H](C)CC)C(=O)N[C@H](CCCNC(=N)N)C(=O)N[C@@H](CCCCNC(=N)N)C(N)=O [Peptide 22, [PhAc-Tyr^1, D-Arg^2, Phe(pCl)^6, Cit^8, Cit^9, Abu^15, Nle^27, D-Arg^28, Har^29]hGH-RH(1-29)NH2] (PhAc-Y[dR]DAI[Phe(4-Cl)]T[Cit][Cit]YRKVL[Abu]QLSARKLLQDI[Nle][dR][hArg]-NH2) | 22 % of control | 26 % of control | 27 % of control | 45 % of control | extremely high binding affinities | – | – | –
2 | CCCC[C@H](NC(=O)[C@@H](NC(=O)[C@H](CC(=O)O)NC(=O)[C@H](CCC(N)=O)NC(=O)[C@H](CC(C)C)NC(=O)[C@H](CC(C)C)NC(=O)[C@H](CCCCN)NC(=O)[C@H](CCCNC(=N)N)NC(=O)[C@H](C)NC(=O)[C@H](CO)NC(=O)[C@H](CC(C)C)NC(=O)[C@H](CCC(N)=O)NC(=O)[C@H](CC)NC(=O)[C@H](CC(C)C)NC(=O)[C@@H](NC(=O)[C@H](CCCCN)NC(=O)[C@H](CCCNC(=N)N)NC(=O)[C@H](Cc1ccc(O)cc1)NC(=O)[C@H](CCCNC(=N)N)NC(=O)[C@H](CC(N)=O)NC(=O)[C@@H](NC(=O)[C@H](Cc1ccc(Cl)cc1)NC(=O)[C@@H](NC(=O)[C@H](C)NC(=O)[C@H](CC(=O)O)NC(=O)[C@@H](CCCNC(=N)N)NC(=O)[C@H](Cc1ccc(O)cc1)NC(=O)CCCCCCC(=O)O)[C@@H](C)CC)[C@@H](C)O)C(C)C)[C@@H](C)CC)C(=O)N[C@H](CCCNC(=N)N)C(=O)N[C@@H](CCCCNC(=N)N)C(N)=O [Peptide 5, [HOOC(CH2)6CO-Tyr^1, D-Arg^2, Phe(pCl)^6, Arg^9, Abu^15, Nle^27, D-Arg^28, Har^29]hGH-RH(1-29)NH2] ({HOOC(CH2)6CO}-Y[dR]DAI[Phe(4-Cl)]TNRYRKVL[Abu]QLSARKLLQDI[Nle][dR][hArg]-NH2) | 22 % of control | 20 % of control | 23 % of control | 27 % of control | extremely high binding affinities | 27 % of control | 4 | –
3 | CCCC[C@H](NC(=O)[C@@H](NC(=O)[C@H](CC(=O)O)NC(=O)[C@H](CCC(N)=O)NC(=O)[C@H](CC(C)C)NC(=O)[C@H](CC(C)C)NC(=O)[C@H](CCCCN)NC(=O)[C@H](CCCNC(=N)N)NC(=O)[C@H](C)NC(=O)[C@H](CO)NC(=O)[C@H](CC(C)C)NC(=O)[C@H](CCC(N)=O)NC(=O)[C@H](CC)NC(=O)[C@H](CC(C)C)NC(=O)[C@@H](NC(=O)[C@H](CCCCN)NC(=O)[C@H](CCCNC(=N)N)NC(=O)[C@H](Cc1ccc(O)cc1)NC(=O)[C@H](CCCNC(=N)N)NC(=O)[C@H](CC(N)=O)NC(=O)[C@@H](NC(=O)[C@H](Cc1ccc(Cl)cc1)NC(=O)[C@@H](NC(=O)[C@H](C)NC(=O)[C@H](CC(=O)O)NC(=O)[C@@H](CCCNC(=N)N)NC(=O)[C@H](Cc1ccc(O)cc1)NC(=O)CCCCCCCCCCCCC(=O)O)[C@@H](C)CC)[C@@H](C)O)C(C)C)[C@@H](C)CC)C(=O)N[C@H](CCCNC(=N)N)C(=O)N[C@@H](CCCCNC(=N)N)C(N)=O [Peptide 11, [HOOC(CH2)12CO-Tyr^1, D-Arg^2, Phe(pCl)^6, Arg^9, Abu^15, Nle^27, D-Arg^28, Har^29]hGH-RH(1-29)NH2] ({C14 diacid}-Y[dR]DAI[Phe(4-Cl)]TNRYRKVL[Abu]QLSARKLLQDI[Nle][dR][hArg]-NH2) | 14 % of control | 24 % of control | 29 % of control | 34 % of control | extremely high binding affinities | 32 % of control | 1.3 | –
4 | CCCCCCCCCC(=O)N[C@@H](Cc1ccc(O)cc1)C(=O)N[C@H](CCCNC(=N)N)C(=O)N[C@@H](CC(=O)O)C(=O)N[C@@H](C)C(=O)N[C@H](C(=O)N[C@@H](Cc1ccc(Cl)cc1)C(=O)N[C@H](C(=O)N[C@@H](CC(N)=O)C(=O)N[C@@H](CCCNC(=N)N)C(=O)N[C@@H](Cc1ccc(O)cc1)C(=O)N[C@@H](CCCNC(=N)N)C(=O)N[C@@H](CCCCN)C(=O)N[C@H](C(=O)N[C@@H](CC(C)C)C(=O)N[C@@H](CC)C(=O)N[C@@H](CCC(N)=O)C(=O)N[C@@H](CC(C)C)C(=O)N[C@@H](CO)C(=O)N[C@@H](C)C(=O)N[C@@H](CCCNC(=N)N)C(=O)N[C@@H](CCCCN)C(=O)N[C@@H](CC(C)C)C(=O)N[C@@H](CC(C)C)C(=O)N[C@@H](CCC(N)=O)C(=O)N[C@@H](CC(=O)O)C(=O)N[C@H](C(=O)N[C@@H](CCCC)C(=O)N[C@H](CCCNC(=N)N)C(=O)N[C@@H](CCCCNC(=N)N)C(N)=O)[C@@H](C)CC)C(C)C)[C@@H](C)O)[C@@H](C)CC [Peptide 6, [CH3(CH2)8CO-Tyr^1, D-Arg^2, Phe(pCl)^6, Arg^9, Abu^15, Nle^27, D-Arg^28, Har^29]hGH-RH(1-29)NH2] (Decanoyl-Y[dR]DAI[Phe(4-Cl)]TNRYRKVL[Abu]QLSARKLLQDI[Nle][dR][hArg]-NH2) | 56 % of control | 22 % of control | 12 % of control | 15 % of control | – | 19 % of control | 0.6 | –
5 | CCCC[C@H](NC(=O)[C@@H](NC(=O)[C@H](CC(=O)O)NC(=O)[C@H](CCC(N)=O)NC(=O)[C@H](CC(C)C)NC(=O)[C@H](CC(C)C)NC(=O)[C@H](CCCCN)NC(=O)[C@H](CCCNC(=N)N)NC(=O)[C@H](C)NC(=O)[C@H](CO)NC(=O)[C@H](CC(C)C)NC(=O)[C@H](CCC(N)=O)NC(=O)[C@H](CC)NC(=O)[C@H](CC(C)C)NC(=O)[C@@H](NC(=O)[C@H](CCCCN)NC(=O)[C@H](CCCNC(=N)N)NC(=O)[C@H](Cc1ccc(O)cc1)NC(=O)[C@H](CCCNC(=N)N)NC(=O)[C@H](CC(N)=O)NC(=O)[C@@H](NC(=O)[C@H](Cc1ccc(Cl)cc1)NC(=O)[C@@H](NC(=O)[C@H](C)NC(=O)[C@H](CC(=O)O)NC(=O)[C@@H](CCCNC(=N)N)NC(=O)[C@H](Cc1ccc(O)cc1)NC(=O)CCCCCCCCC(=O)O)[C@@H](C)CC)[C@@H](C)O)C(C)C)[C@@H](C)CC)C(=O)N[C@H](CCCNC(=N)N)C(=O)N[C@@H](CCCCNC(=N)N)C(N)=O [Peptide 7, [HOOC(CH2)8CO-Tyr^1, D-Arg^2, Phe(pCl)^6, Arg^9, Abu^15, Nle^27, D-Arg^28, Har^29]hGH-RH(1-29)NH2] ({HOOC(CH2)8CO}-Y[dR]DAI[Phe(4-Cl)]TNRYRKVL[Abu]QLSARKLLQDI[Nle][dR][hArg]-NH2) | 23 % of control | 13 % of control | 11 % of control | 14 % of control | extremely high binding affinities | 14 % of control | 12 | high endocrine antagonistic potencies
